# Patent publication US20120232062A1, “AZAINDAZOLES TO TREAT FLAVIVIRIDAE VIRUS INFECTION” (EIGER BIOPHARMACEUTICALS, INC., priority 2009, published 2012)
# Key:
# hERG channel = target: T1, hERG channel (Homo sapiens, UniProt Q12809); assay: hERG channel assay; assay type: cell-based; conditions: CHO cell line expressing hERG, whole cell recordings
# T1 construct: host or cells: CHO (Chinese Hamster Ovary), stably transfected
# Protocol: The most common mechanism for these adverse events is the inhibition of one or more cardiac potassium channels, in particular hERG. This current is important for cardiac myocyte repolarization and is a common target for drugs that prolong the QT interval. Test articles in this study were therefore characterized to determine their ability to inhibit the hERG channel. Ion channel activity was measured using a stably transfected Chinese Hamster Ovary (CHO) cell line expressing the hERG mRNA. The pharmacology of this cloned channel expressed in the CHO cell line is very similar to that observed in native tissue.
# Cells: AVIVA's CHO cell line, which stably expresses hERG channels, was used for the study. Cells were cultured in DMEM/F12 containing 10% FBS, 1% penicillin/streptomycin and 500 μg/ml G418. Before testing, cells were harvested using Accumax (Innovative Cell Technologies).
# Solutions: For electrophysiological recordings, the following solutions were used. External Solution: 2 mM CaCl2; 2 mM MgCl2; 4 mM KCl; 150 mM NaCl; 10 mM Glucose; 10 mM HEPES; 310-320 mOsm; pH 7.4 (adjusted with 1M NaOH). Internal Solution: 140 mM KCl; 10 mM MgCl2; 6 mM EGTA; 5 mM HEPESNa; […]; 300-320 mOsm; pH 7.25 (adjusted with 1M KOH).
# Electrophysiology: Whole cell recordings were performed using PX 7000A (Axon Instruments) with VIVA's SealChip™ technology. Cells were voltage clamped at a holding potential of −80 mV. The hERG current was then activated by a depolarizing step to −50 mV for 300 ms. This first step at −50 mV was used as a baseline for measuring peak amplitude of the tail current. Next, a voltage step to +20 mV was applied for 5 s to activate the channels. Finally a step back to −50 mV for 5 seconds removed activation and the deactivating tail current was recorded.
# Compound Handling and Dilutions: All compounds were prepared from either 10 or 30 mM DMSO stock solutions. Solutions were mixed by sonication for 20 min, followed by vigorous vortexing. Prior to testing, compounds were diluted to test concentrations in glass vials using External Solution. Dilutions were prepared no longer than 20 min prior to use. Equal amounts of DMSO (0.1%) were present in all final dilutions.
# Electrophysiology Procedures: After achieving whole cell configuration, cells were monitored for 90 s to assess stability and then washed with External Solution for 66 s. The voltage protocol described above was then applied to the cells every 12 s throughout the procedure. Only stable cells with recording parameters above threshold (see Quality Control section) were allowed to enter the drug addition procedure. External solution containing 0.1% DMSO (vehicle) was applied to the cells to establish a baseline. After allowing the current to stabilize for 3 to 5 min, test articles were applied. Test article solutions were added to cells in 4 separate additions. Cells were kept in test solution until effect of the test article reached steady state, to a maximum of 12 min. Next, 1 μM cisapride (positive control) was added. Finally, washout with External Solution was performed until the recovery current reached a steady state.
# Data Analysis: Data analysis was performed using DataXpress (Axon Instruments), Clampfit (Axon Instruments) and Origin (Originlab Corporation) software.
# HCV genotype 1b = assay: HCV 1b replicon luciferase assay; assay type: cell-based; conditions: Hepatitis C virus, Huh-7, 48 h, Table 1; Huh7 HCV 1b replicon, luciferase reporter, 48 hours; read-out: 1b EC50
# Outline: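 Huh7 cells carrying a genotype 1b replicon with stable luciferase reporter, 10k cells/well, were treated 48 h at 37 °C with 10-point 5-fold dilutions from 25 μM (0.1% DMSO), in duplicate. Replication was read as Steady-Glo luminescence.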
# [1] = Liver microsome stability, rat; assay type: in vitro ADME, Sprague Dawley rat
# From the text: (§1) Metabolic stability assays are designed to measure the stability of a test compound in a variety of assay matrices from human and animal species. From a metabolism perspective, a drug would be relatively stable, have a small first-pass effect, and maintain an effective concentration in blood for a reasonable period of time. A microsomal preparation from the liver contains all CYP isozymes and other membrane-bound drug metabolizing enzymes which are responsible for the metabolism for the majority of drugs in humans. Metabolic stability in liver microsomes can determine half-life (T1/2) and intrinsic clearance (Clint). The determination of Clint may be useful to determine whether metabolism is the major elimination pathway when it is compared to total body clearance in vivo. For high metabolic stability in liver microsomes: […] Human, Sprague Dawley rat, and CD-1 mouse liver microsome samples were purchased from BD Gentest. An in vitro metabolic stability assay suitable for use in predicting first pass metabolism of the compounds useful in the methods of the invention is described in this example. […] 6 mM NADPH in 0.1 M K-phosphate buffer is prepared by dissolving 25.1 mg of NADPH tetrasodium salt in 5 mL of K-phosphate buffer. […] The plate is pre-incubated at 37° C. for 10 minutes. 15 μL of NADPH stock solution (6 mM) is added to the wells designated for Time 60 and timed. At 30 min, 15 min, and 5 min, 15 μL of NADPH stock solution (6 mM) is added to the wells. At the end of incubation, 135 μL of ACN containing IS is added to all the wells (60 min, 30 min, 15 min, 5 min and 0 min). Then 15 μL of NADPH stock solution (6 mM) is added to the wells designated as Time 0.
# [2] = Liver microsome stability, mouse; assay type: in vitro ADME, CD-1 mouse
# From the text: as §1
# [3] = Liver microsome stability, human; assay type: in vitro ADME
# From the text: as §1
# FTase = FTase (Homo sapiens, UniProt P49356); conditions: cited from earlier work
# T1 sequence (Q12809 whole entry): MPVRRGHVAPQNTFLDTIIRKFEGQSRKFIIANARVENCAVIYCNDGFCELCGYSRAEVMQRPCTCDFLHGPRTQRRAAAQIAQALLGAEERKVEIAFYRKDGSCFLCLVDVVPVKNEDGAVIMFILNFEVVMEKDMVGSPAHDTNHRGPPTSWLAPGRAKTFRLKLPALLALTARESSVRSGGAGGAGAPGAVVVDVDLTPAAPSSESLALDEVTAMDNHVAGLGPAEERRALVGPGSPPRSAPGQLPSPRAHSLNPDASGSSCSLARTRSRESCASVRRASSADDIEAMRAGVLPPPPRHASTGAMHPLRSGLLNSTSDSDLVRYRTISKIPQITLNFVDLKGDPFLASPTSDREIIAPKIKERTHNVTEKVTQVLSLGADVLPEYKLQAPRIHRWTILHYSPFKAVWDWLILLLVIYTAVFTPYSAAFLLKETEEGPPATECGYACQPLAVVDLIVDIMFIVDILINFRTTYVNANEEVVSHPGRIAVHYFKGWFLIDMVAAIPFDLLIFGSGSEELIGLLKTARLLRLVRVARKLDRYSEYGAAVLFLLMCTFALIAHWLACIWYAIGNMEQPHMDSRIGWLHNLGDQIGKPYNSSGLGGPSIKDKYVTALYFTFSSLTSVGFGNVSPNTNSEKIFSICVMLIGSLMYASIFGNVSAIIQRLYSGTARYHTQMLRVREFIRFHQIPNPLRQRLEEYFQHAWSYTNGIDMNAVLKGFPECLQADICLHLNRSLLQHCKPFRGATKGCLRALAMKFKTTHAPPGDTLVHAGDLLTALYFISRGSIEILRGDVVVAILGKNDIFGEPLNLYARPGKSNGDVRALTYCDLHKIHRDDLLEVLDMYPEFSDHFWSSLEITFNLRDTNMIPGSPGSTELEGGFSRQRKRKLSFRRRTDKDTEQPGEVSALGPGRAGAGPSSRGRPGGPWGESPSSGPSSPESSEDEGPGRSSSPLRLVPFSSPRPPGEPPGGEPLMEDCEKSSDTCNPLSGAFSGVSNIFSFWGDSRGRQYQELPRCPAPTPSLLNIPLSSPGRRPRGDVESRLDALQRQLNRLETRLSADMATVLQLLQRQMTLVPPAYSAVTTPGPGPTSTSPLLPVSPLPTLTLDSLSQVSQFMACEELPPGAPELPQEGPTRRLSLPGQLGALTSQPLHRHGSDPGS
smiles,measurement,setting,value
O=C(Nc1n[nH]c2nc(N3CCCCCC3)ccc12)C1CCNCC1 [compound 680],IC50,hERG channel,> 10000 nM
same,EC50,HCV genotype 1b,4100 nM
CCC(CC)Oc1ccc2c(COCC3CCNCC3)nn(Cc3ccc(Cl)cc3)c2n1 [compound 756],IC50,"hERG channel; human, CHO cells stably expressing hERG, pH 7.4",10000 nM
same,EC50,HCV genotype 1b,2200 nM
O=C(NC1CCNCC1)c1n[nH]c2nc(O)ccc12 [compound 744],IC50,hERG channel,> 10000 nM
same,EC50,HCV genotype 1b,1500 nM
O=C(NCC1CCNCC1)c1n[nH]c2nc(N3CCCCCC3)ccc12 [compound 702],IC50,hERG channel,> 10000 nM
same,EC50,HCV genotype 1b,3400 nM
Cn1nc(C(=O)Nc2ccncc2)c2ccc(N3CCCCCC3)nc21 [compound 701],IC50,hERG channel,> 10000 nM
same,EC50,HCV genotype 1b,1100 nM
Cn1nc(NC(=O)c2cccs2)c2ccc(N3CCCCCC3)nc21 [compound 659],IC50,hERG channel,> 10000 nM
same,EC50,HCV genotype 1b,1800 to 4900 nM
CC1CCCCN1CCOCc1nn(C)c2nc(N3CCCCCC3)ccc12 (stereo not shown) [compound 1549],"rat liver microsome (RLM), % parent remaining",[1]; after 15 min,52 % parent remaining
same,"rat liver microsome (RLM), % parent remaining",[1]; after 30 min,31 % parent remaining
same,"rat liver microsome (RLM), % parent remaining",[1]; after 60 min,17 % parent remaining
same,"mouse liver microsome (MLM), % parent remaining",[2]; after 15 min,27 % parent remaining
same,"mouse liver microsome (MLM), % parent remaining",[2]; after 30 min,17 % parent remaining
same,"mouse liver microsome (MLM), % parent remaining",[2]; after 60 min,13 % parent remaining
same,"human liver microsome (HLM, % parent remaining)",[3]; after 15 min,16 % parent remaining
same,"human liver microsome (HLM, % parent remaining)",[3]; after 30 min,11 % parent remaining
same,"human liver microsome (HLM, % parent remaining)",[3]; after 60 min,13 % parent remaining
same,EC50,HCV genotype 1b,4000 nM
Cn1nc(C(=O)NC2CCN(CC3CCCCC3)CC2)c2ccc(N3CCCCCC3)nc21 [compound 987],IC50,hERG channel,880 nM
same,EC50,HCV genotype 1b,550 nM
Cn1nc(C(=O)NC2CCN(CCN3CCCCC3CO)CC2)c2ccc(N3CCCCCC3)nc21 (stereo not shown) [compound 1559],"rat liver microsome (RLM), % parent remaining",[1]; after 15 min,57 % parent remaining
same,"rat liver microsome (RLM), % parent remaining",[1]; after 30 min,31 % parent remaining
same,"rat liver microsome (RLM), % parent remaining",[1]; after 60 min,8 % parent remaining
same,"mouse liver microsome (MLM), % parent remaining",[2]; after 15 min,54 % parent remaining
same,"mouse liver microsome (MLM), % parent remaining",[2]; after 30 min,27 % parent remaining
same,"mouse liver microsome (MLM), % parent remaining",[2]; after 60 min,5 % parent remaining
same,"human liver microsome (HLM, % parent remaining)",[3]; after 15 min,65 % parent remaining
same,"human liver microsome (HLM, % parent remaining)",[3]; after 30 min,32 % parent remaining
same,"human liver microsome (HLM, % parent remaining)",[3]; after 60 min,7 % parent remaining
same,EC50,HCV genotype 1b,1800 nM
CC(C)CN(C)c1ccc2c(C(=O)NC3CCNCC3)n[nH]c2n1 [compound 738],IC50,hERG channel,> 10000 nM
same,EC50,HCV genotype 1b,2200 nM
O=C(NC1CCNCC1)c1n[nH]c2nc(N3CCCCCC3)ccc12 [compound 655],IC50,hERG channel,1340 nM
same,EC50,HCV genotype 1b,2100 to 3500 nM
O=C(Nc1nn(Cc2ccc(Cl)cc2)c2nc(N3CCCCCC3)ccc12)C1CCCNC1 (stereo not shown) [compound 745],IC50,hERG channel,> 10000 nM
same,EC50,HCV genotype 1b,3000 nM
O=C(NCC1CCCNC1)c1n[nH]c2nc(N3CCCCCC3)ccc12 (stereo not shown) [compound 703],IC50,hERG channel,8800 nM
same,EC50,HCV genotype 1b,2200 nM
CC1CCC(C)N1CCOCc1nn(C)c2nc(N3CCCCCC3)ccc12 (stereo not shown) [compound 1540],"rat liver microsome (RLM), % parent remaining",[1]; after 15 min,17 % parent remaining
same,"rat liver microsome (RLM), % parent remaining",[1]; after 30 min,2 % parent remaining
same,"rat liver microsome (RLM), % parent remaining",[1]; after 60 min,4 % parent remaining
same,"mouse liver microsome (MLM), % parent remaining",[2]; after 15 min,34 % parent remaining
same,"mouse liver microsome (MLM), % parent remaining",[2]; after 30 min,18 % parent remaining
same,"mouse liver microsome (MLM), % parent remaining",[2]; after 60 min,10 % parent remaining
same,"human liver microsome (HLM, % parent remaining)",[3]; after 15 min,17 % parent remaining
same,"human liver microsome (HLM, % parent remaining)",[3]; after 30 min,9 % parent remaining
same,"human liver microsome (HLM, % parent remaining)",[3]; after 60 min,4 % parent remaining
same,EC50,HCV genotype 1b,2700 nM
O=C(NC1CCNCC1)c1n[nH]c2nc(OC3CCCCC3)ccc12 [compound 729],IC50,hERG channel,> 10000 nM
same,EC50,HCV genotype 1b,1800 nM
CC1CCCN1CCCc1nn(C)c2nc(N3CCCCCCC3)ccc12 (stereo not shown) [compound 1452],"rat liver microsome (RLM), % parent remaining",[1]; after 15 min,2 % parent remaining
same,"rat liver microsome (RLM), % parent remaining",[1]; after 30 min,0.8 % parent remaining
same,"rat liver microsome (RLM), % parent remaining",[1]; after 60 min,0.5 % parent remaining
same,"mouse liver microsome (MLM), % parent remaining",[2]; after 15 min,1.7 % parent remaining
same,"mouse liver microsome (MLM), % parent remaining",[2]; after 30 min,0.9 % parent remaining
same,"mouse liver microsome (MLM), % parent remaining",[2]; after 60 min,0.3 % parent remaining
same,"human liver microsome (HLM, % parent remaining)",[3]; after 15 min,32 % parent remaining
same,"human liver microsome (HLM, % parent remaining)",[3]; after 30 min,13 % parent remaining
same,"human liver microsome (HLM, % parent remaining)",[3]; after 60 min,3 % parent remaining
same,EC50,HCV genotype 1b,1200 nM
Cn1nc(N)c2ccc(N3CCCCCC3)nc21 [compound 658],IC50,hERG channel,> 10000 nM
same,EC50,HCV genotype 1b,400 to 2200 nM
"Cn1cncc1C(N)(c1ccc(Cl)cc1)c1ccc2c(c1)c(-c1cccc(Cl)c1)cc(=O)n2C (stereo not shown) [Tipifarnib, 6-[Amino(4-chlorophenyl)-1-methyl-1H-imidazol-5-ylmethyl]-4-(3-chlorophenyl)-1-methyl-2(1H)-quinolinone]",IC50,FTase,0.86 nM
